Laboratory results published in patent publication US12150940B2, “WASp-protecting small molecules, compositions, methods and uses thereof in the treatment of innate and acquired immune-related disorders or conditions” (BAR ILAN UNIVERSITY, priority 2016, dated 2024).
Peptide text beside a SMILES is read from it. * marks the point of attachment. Cbz = O=C(OCc1ccccc1)*

Legend:
Jurkat T cells = assay: Lymphocyte activation in Jurkat T cells (CD69 and activated LFA-1, flow cytometry); type: cell-based, human; details: Jurkat T cells stimulated with PMA and Ionomycin, vs control
Procedure: FIGS. 9A and 9B, show 1×10^6 Jurkat T cells/ml, stimulated with PMA and Ionomycin, were treated with WASp-binding SMC #6 or control. After incubation, the cells were stained with anti-activated LFA-1 antibody (KIM127), followed by staining with Alexa488-Fluor goat anti-mouse IgG1 secondary antibody (FIG. 9B). Cells were co-stained with PE-Cy5™-conjugated mouse anti-human CD69 and lymphocyte activation was measured by flow-cytometry as described in the Experimental procedures (FIG. 9A). Histograms of negative control versus SMC #6 are presented.
PBMCs or Jurkat cells (about 3×10^5 cells) were incubated for 4 h, at 37° C. with 50 ng/ml PMA and 250 ng/ml lonomycin, or 40 ng/ml PMA and 6 μM Ionomycin, respectively, or left untreated. After incubation, the cells were collected and stained with 1 μg/ml anti-active human LFA-1 antibody (purified from KIM127 hybridoma sup, ATCC Cat #: CRL-2838, Sigma) for 30 min in 37° C., followed by staining with Alexa488-Fluor goat anti-mouse IgG1 secondary antibody (Molecular Probes, Cat #: A-21121), 30 min on ice. Cells were then co-stained with PE-Cy5™-conjugated mouse anti-human CD69 (BD Pharmingen, Cat #: 555532) to measure lymphocyte activation.
Once activated, lymphocytes proliferate to effectively amplify the immune response. […]

WASp = WASp ubiquitylation in Meg-01 cells (immunoprecipitation, anti-ubiquitin blot); type: cell-based, human; details: Meg-01 cells after activation, treated vs untreated
Procedure: Freshly-isolated platelets were stimulated with 10 μM of TRAP-6 for the indicated time points, followed by lysis. WIP (FIG. 7A) or WASp (FIG. 7B) were immunoprecipitated from the lysates and analyzed by western blot for co-immunoprecipitation, using anti-WASp, anti-WIP or anti-PKCθ antibodies. WASp immunoprecipitates were immunoblotted for WASp ubiquitylation using anti-ubiquitin (Ub) antibody (FIG. 7C). Ubiquitylated WASp appears as a smear of bands above the MW of 65 kDa with a prominent band at ˜81 kDa. […] Blots are representative of three independent experiments. Meg-01 megakaryocyte cell line was activated in the presence (+) or absence (−) of MG132, followed by lysis (FIG. 7E). WASp ubiquitylation was determined by co-immunoprecipitation analysis as in FIG. 7C. […] PKCθ and WASp protein expression levels were analyzed by western blot with anti-PKCθ and anti-WASp antibodies, and with anti-GAPDH as loading control. Relative protein expression was determined by densitometric analysis and is presented below the corresponding lanes. […]
Insufficient WASp expression in platelets and megakaryocytes is the cause of microthrombocytopenia of WAS/XLT patients (Albert et al 2010, Lutskiy et al, 2007). […] Similarly, reciprocal co-precipitation was detected between WASp and WIP during the first two minutes of activation when WASp was immunoprecipitated (FIG. 7B). […]

Row | SMILES | lymphocyte activation (CD69, activated LFA-1) (Jurkat T cells) | WASp ubiquitylation (WASp)
1 | CC(=O)N[C@H]1C[C@@H](c2ccc3c(c2)nnn3C)O[C@@H](c2ccc(Cl)cc2)C1 [SMC #6, N-[(2R,4R,6S)-2-(4-chlorophenyl)-6-(1-methylbenzotriazol-5-yl)oxan-4-yl]acetamide] | upregulation | 
2 | CC(C)C[C@@H](C=O)NC(=O)[C@H](CC(C)C)NC(=O)[C@H](CC(C)C)NC(=O)OCc1ccccc1 [MG132] (Cbz-Leu-Leu-Leu-aldehyde) |  | more intense
